Source: patent US20260183420A1, “ACTIVATED NANOTHERAPY FOR SICKLE CELL DISEASE” (UNIVERSITY OF MARYLAND, BALTIMORE, priority 2022, published 2026)

Legend:
[1] = test system: RBCs from subjects without sickle cell disease; test: RBC lysis, blood from subjects without sickle cell disease; type: cell-based, human; details: healthy blood, 1-hour incubation at 37° C.
Procedure: Blood samples (RBCs) from subjects without sickle cell disease were tested with compounds to determine whether the compounds have any impact on RBC physiology, including tests for lysis, LORRCA (deformability and osmotic fragility), and HEMOX (ODC (p50) and cooperativity (Hill number)) after a 1-hour incubation at 37° C. See FIG. 33 for results for HPLC analysis of Hb modification; FIG. 34 for results for % RBC lysis for control blood (combined); FIG. 35 for results as shown; FIG. 36 for results for RBC osmotic fragility; and FIG. 37 for p50 and Hill number results for the oxygen dissociation curve (ODC).

[2] = target: T1, Hb (HbS) in human SS RBCs (Homo sapiens, UniProt P69905); test: 5-HMF-induced Hb modification quantitated by cation exchange HPLC in RBCs from SCD patients; type: cell-based
T1 construct: endogenous in cells; host or cells: red blood cells from patients with sickle cell disease (human SS RBCs)
T1 sequence (P69905 2-142): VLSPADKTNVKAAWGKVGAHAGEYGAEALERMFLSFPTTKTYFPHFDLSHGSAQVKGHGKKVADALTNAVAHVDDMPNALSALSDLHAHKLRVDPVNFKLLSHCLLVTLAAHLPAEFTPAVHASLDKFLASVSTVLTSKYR
T1 sequence (P68871 with tags, fused parts or gaps E7V partner): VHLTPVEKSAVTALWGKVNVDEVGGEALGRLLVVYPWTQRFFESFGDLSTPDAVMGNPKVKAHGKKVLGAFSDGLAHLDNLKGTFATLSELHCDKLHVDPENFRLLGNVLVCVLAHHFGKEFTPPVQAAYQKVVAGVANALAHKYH
Procedure: HPLC was performed to detect binding of an allosteric effector to Hb.
(§1) FIG. 19A presents illustrative chromatograms (standards & samples).
(§2) 5-HMF-induced Hb modification was quantitated by HPLC (Waters™ e2695XE Alliance™, Swift WCX-PEEK); O2 dissociation curves (ODC) were measured in intact RBCs (HEMOX Analyzer); pO2's at the point of sickling (POS) and point of unsickling (POU) were determined during controlled Hb O2 unloading/loading, respectively (LORRCA Oxygenscan RR Mechatronics).
See data in FIG. 21A and FIG. 21B (control patients) and FIG. 21C and FIG. 21D (SCD patients).

[3] = target: T2, Hb (HbO2 affinity) in intact SRBCs (Homo sapiens, UniProt P69905); test: O2 dissociation curve / HbO2 affinity (p50) in intact SRBCs (HEMOX Analyzer); type: cell-based; details: pH 7.4, 5 mM 5-HMF, 1 hour, intact SCD RBCs
T2 construct: endogenous in cells; host or cells: red blood cells from patients with sickle cell disease (human SS RBCs)
T2 sequence (P69905 2-142): as the sequence (P69905 2-142) above
T2 sequence (P68871 with tags, fused parts or gaps E7V partner): as the sequence (P68871 with tags, fused parts or gaps E7V partner) above
Procedure: Hemox analysis methods determine oxygen partial pressure and the degree of hemoglobin saturation with oxygen using a Clark oxygen electrode and spectrophotometry, respectively.
as §1, §2
(§3) After either 1 hour or 3 hours, either or both oxygen dissociation curves (ODC) or laser ektacytometry was performed to measure either or both p50 and POS/POR. […] As for PK data, effect upon p50 and POS/POR appear to progress from 1 hour to 3 hours. […] See also the results in FIG. 23. CNP=carbon nanoparticle.

[4] = human trials; cited from earlier work
human SS RBCs = test: Laser ektacytometry during controlled deoxygenation/reoxygenation (LORRCA Oxygenscan): POS, POR, elongation index; type: cell-based; details: 1 hour
Source text: The LORRCA red blood cell analysis platform was used to obtain information on deformability (cell and cell membrane stability), including under an osmotic gradient (osmotic resistance). The platform also can provide data on aggregation tendency and kinetics and measure the relative oxygen pressure at the critical point when the red blood cells start to sickle. Here, RBC Osmotic Fragility (elongation index (EI) vs. osmolality at specific sheer), RBC Deformability (EI vs sheer at specific osmolality), and RBC Oxyscan Sickling Characteristics (EI vs pO2) were determined. See, for example, FIG. 5.
See FIG. 6 for a description of how EI is calculated. See FIG. 7 for an example calculation of Oxyscan analysis parameters. […] LORRCA determines POS as the pO2 corresponding to a 5% decrease in EImax. If the EI is not completely stable at high pO2 (i.e., the Oxyscan baseline is not level), POS is calculated to be artificially high. FIG. 9 is a graph showing an example point of sickling (POS) determination from “first derivative,” which is taken from the plot. A common method to process, the first derivative of a spectrum is the rate of change of absorbance with respect to wavelength.
as §1, §2, §3

RBC lysis versus PBS control [1]: no difference
5-HMF induced Hb modification (maximal) ([2]; SCD RBCs, 20% Hct, 37° C., 1 hour, 5 mM 5-HMF): about 75%
ODC p50 [3]: 20.3±1.5 Torr
Compound: O=Cc1ccc(CO)o1 [Nanoparticle 5-HMF, 5-(hydroxymethyl)furfural]
relative efficacy for % 5-HMF adducted Hb (ranking high to low) ([2]; equimolar for 5-HMF (5 mM), 0.25-24 hours): (high to low): free CoNP, 5-HMF, LP, CD, LNP
bioavailability [4]: low bioavailability
half-life [4]: ~1 h
POR decrease (human SS RBCs; 0 vs 5 mM 5-HMF): 45%
POS decrease (human SS RBCs; 0 vs 5 mM 5-HMF): 30%
pO2 at point of sickling (POS) (human SS RBCs; 5 mM 5-HMF, SCD RBCs): 39.8±11.6 Torr
